Data from patent publication US5994311A, “Cell adhesion peptides for modifying the adhesion capacity of eukaryotic cells between each other” (Beiersdorf AG, priority 1994, dated 1999).

How the values were obtained:
HDF cells [1] = test: Cell adherence test with HDF cells; format: cell-based, human; settings: for CELL ADHESION [%]: peptide/BSA conjugates bound to polystyrene, approx. 35 nmol peptide per well, 1 hour at 37° C., fibronectin positive control, BSA negative control; for adherence promoting effect for HDF cells (in words): BSA conjugates
Protocol: (§1) 50 μl each of the peptide/BSA conjugates or the peptides were placed, in different concentrations, in the wells of a 96-well flat-bottomed microtiter plate (DYNATECH). After drying for 2 hours at 37° C., unbound peptide/BSA conjugate or peptide is removed by washing with phosphate-buffered saline solution (PBS) several times. In order to prevent the non-specific adhesion of the cells to polystyrene, all the wells were subsequently saturated for 30 min. at 37° C. with heat-denatured BSA (2 mg/ml). Following that, it was once again washed with PBS.
As a positive control for the adhesion capacity, bovine fibronectin (Paesel & Lorey, 1 mg/ml) was used, and heat-denatured BSA (2 mg/ml) as a negative control; this is not capable of influencing intercellular adhesion.
(§2) The cell adherence test was performed with AKR-2B mouse fibroblasts (Shipley et al., Cancer Res. 44 (1984) 710-716) and human dermal fibroblasts (HDF, removed from the lower arm, 18th passage). AKR-2B cells were cultivated in McCoy's medium (10% calf serum), and HDF cells in Dulbecco's modified eagle medium (DMEM) in the presence of 10% foetal calf serum (FCS) and 1% streptomycin/penicillin. For the adherence test, the cells were washed twice with protein-free HYBRI-MAX™ (medium for culture of hybridoma cell types containing 1 mM Mn^2+ and 0.02% heat-denatured BSA) medium (SIGMA) and then taken up in Hybri-Max (1 mM Mn^2+, 0.02% heat-denatured BSA). In this way, it was largely ensured that neither protein components from the culture medium, nor serum components, such as fibronectin for example, could influence the adherence test. In each well of the microtiter plate previously filled with test substance (peptide concentration per well: approx. 35 nmol), 200 μl of the cell suspension taken up in HYBRI-MAX™ (medium for culture of hybridoma cell types containing 1 mM Mn^2+ and 0.02% heat-denatured BSA) (1 mM Mn^2+, 0.02% heat-denatured BSA) (1.5×10^5 cells/well) were pipetted and incubated for 1 hour in an incubator at 37° C., 5% CO2 atmosphere. After that, the supernatant was decanted off, and non-adhered cells were removed by washing with PBS. The adhered cells were fixed for 0.5 min with methanol and stained with the MERCK HEMACOLOR™ (colution for fast staining in microscopy) reagent kit in order to quantify the number of cells.

HDF cells [2] = test: Chemotaxis test using HDF cells (modified Boyden chambers); format: cell-based, human; settings: 4 hours at 37° C., medium control deducted, Collagen 0.3 nmol/ml, Fibronectin 0.6 nmol/ml, peptides 1 μmol/ml
Protocol: In addition to wound contraction, the epithelialisation of the wound as a result of the migration of cells from the edges of wounds plays a significant role in wound repair. Some selected peptides were investigated in chemotaxis tests in order to study their ability to simulate the migration of HDF cells. The test was conducted in accordance with Scharffetter-Kochanek et al. (J. Invest. Dermatol. 98 (1992) 3-11) in modified Boyden chambers. In the lower cavity of the Boyden chamber, 210 μl DMEM (control) or the potential chemoattractant taken up in the same volume of DMEM were placed. […] 2×10^5 cells were pipetted into the upper Boyden chamber (volume 810 μl). The incubation time was 4 hours at 37° C. The results for the peptides investigated are summed up in Tab. 5, with the figures for the medium control already having been deducted from these readings.

AKR-2B cells [3] = test: Competitive inhibition test (adherence of AKR-2B cells to BSA/AP#2 conjugate); format: cell-based, mouse; settings: for Inhibition (maximum measured reduction in cell adherence): soluble peptide 1 μmol/well, AKR-2B cells, plates coated with BSA/AP#2 conjugate 10 nmol/well; for inhibitory effect on the attachment of AKR-2B cells (in words): soluble peptides, competition with BSA/AP#2 conjugate
Protocol: Via the specific saturation of surface receptors (shown schematically in FIG. 3E), it is possible, in the case of soluble peptides, to measure an inhibitory effect on the adhesion of test cells (AKR-2B). In the experiment described here, a selected peptide/BSA conjugate corresponding to a peptide concentration of 10 nmol/well was placed in the microtiter plates and incubated for 2 hours at 37° C. Unsaturated binding sites in the culture vessel were subsequently saturated for 30 minutes with heat-denatured BSA (2 mg/ml). The peptides were dissolved in HYBRI-MAX™ (medium for culture of hybridoma cell types containing 1 mM Mn^2+ and 0.02% heat-denatured BSA) Medium (0.02 % BSA, 1 mM Mn^2+), and the pH was adjusted to a level of 7.2 to 7.4. Following that, the peptide solutions were treated with Reductacryl®. […] From these stock solutions, dilution series were prepared in HYBRI-MAX™ (medium for culture of hybridoma cell types containing 1 mM Mn^2+ and 0.02% heat-denatured BSA) medium (1 mM Mn^2+, 0.02% heat-denatured BSA), and added to the AKR-2B cells taken up in the same medium. After that, the specimens were incubated for 10 minutes at 37° C., while being gently shaken. The cells pre-treated in this way (1.5×10^5 /200 μl) were subsequently transferred to the conjugate-coated microtiter plates. The further treatment of the test plates was performed by analogy with 4.1.
The inhibitory effect of the peptides is shown in Tab. 4 as the difference between the 100% figure (control, with no peptide in the medium), and the maximum measured reduction in cell adherence at a peptide concentration of 1 μmol/well. A figure of 100% would mean complete inhibition, i.e. the maximum effect.
For the peptides of the invention available in soluble form, i.e. in a form not bound to carrier molecules, it is possible to detect adhesion inhibiting properties which come about as a result of the specific blockade of epitopes on surface receptors of the test cells (cf. FIG. 3E).
The AP#2 peptide was selected as an internal standard. Compared to most of the other peptides of the invention (cf. Tab. 2), the adhesion promoting properties of BSA/AP#2 conjugates lie within a region of semi-maximum effectiveness. Experience has shown that, in order to detect inhibitory effects, it is favourable to measure in a range of less than optimum effect, since otherwise weak inhibitory effects might not be detected.

AKR-2B cells [4] = test: Cell adherence test, dilution series on AKR-2B cells (EC50); format: cell-based, mouse; settings: for EC50 (semi-maximum cell adherence): peptide/BSA conjugates diluted in PBS, read off from curve
Protocol: as §1, §2
For some selected conjugates, dilution series were included in order to determine binding constants for AKR-2B cells. For this purpose, the peptide/BSA conjugates were diluted in PBS, and 50 μl each of these dilutions were placed in the wells of a microtiter plate. Incubation and all the other steps were performed according to the method described above. After the readings had been plotted graphically, the difference between the figure for the maximum cell adherence and the zero value could be formed, and the EC50 values shown in Tab. 3 as a measure of the semi-maximum cell adherence could be read off from the line of the curve.
In order to establish binding constants for the peptides of the invention, dose effectiveness curves on AKR-2B cells were recorded for some selected conjugates. The EC50 values shown in Tab. 3 as a measure of semi-maximum cell adherence were read off from the curve concerned (plotted: cell adherence versus peptide concentration). Low EC50 values mean that only small quantities of the substances need to be used in order to achieve a semi-maximum effect, in other words that the substance is very effective.

Substance	CELL ADHESION [%] (HDF cells [1])	adherence promoting effect for HDF cells (in words) (HDF cells [1])	also measured
A-E-L-L-D-G-(C) (AELLDG; C-terminal Cys) [AP#24]	32.7		
Collagen: collagen I, positive control in chemotaxis test			Avge. no. of cells per field of vision (HDF cells [2]): 45.7; Chemotactic migration [%] (HDF cells [2]): 100.0%
E-L-L-D-G-(C) [AP#25]	47.7		Inhibition (maximum measured reduction in cell adherence) (AKR-2B cells [3]): 18.1%; inhibitory effect on the attachment of AKR-2B cells (in words) (AKR-2B cells [3]): slightly less efficiency; EC50 / binding constant on AKR-2B cells (in words) (AKR-2B cells [4]; peptide/BSA conjugates): better binding constant was obtained compared to the control; EC50 (semi-maximum cell adherence) (AKR-2B cells [4]): 42.0 pmol/well
FN: bovine fibronectin (Paesel & Lorey, 1 mg/ml), positive control for the adhesion capacity	100.0		
Fibronectin			Avge. no. of cells per field of vision (HDF cells [2]): 43.9; Chemotactic migration [%] (HDF cells [2]): 96.0%
G-G-G-A-G-G-G-S-S-G-S-G-(C) (GGGAGGGSSGSG; C-terminal Cys) [AP#11]	30.5	significant adhesion modifying effect	
G-G-G-S-G-G-G-S-S-G-S-G-(C) (GGGSGGGSSGSG; C-terminal Cys) [AP#10]	27.5	significant adhesion modifying effect	
G-I-V-R-T-P-L (GIVRTPL) [AP#9]	93.0	good effectiveness	EC50 (semi-maximum cell adherence) (AKR-2B cells [4]): 50.7 pmol/well
G-I-V-R-T-P-L-A-E-L (GIVRTPLAEL) [AP#8]	78.2	good effectiveness	EC50 (semi-maximum cell adherence) (AKR-2B cells [4]): 41.7 pmol/well
G-R-G-D-S-(C) [IVA1b, reference compound]	93.8	similarly good to those of fibronectin	
G-T-P-G-P-Q-G-I-A-G-Q-R-G-V-V-(C) (GTPGPQGIAGQRGVV; C-terminal Cys) [P-15, adhesion promoting fragment of the α-1(I) chain of collagen, reference compound]	62.1	slightly less effective	
G-V-V-S-T-P-L-V-N-L-I-N-G-(C) [AP#5]	53.2		
I-V-R-T-P--- -A-E-L-L-D-G-(C) (AELLDG; N-terminal IVRTP; C-terminal Cys) [AP#14]	27.0		
I-V-R-T-P-L-A-E-L-L-D-G-(C) [AP#13]	37.3		
L-A-E-L-L-D-G-(C) (LAELLDG; C-terminal Cys) [AP#21]	43.5		
L-A-E-L-L-D-G-E-(C) [AP#20]	54.1	increased adherence promoting effect	
L-A-E-L-L-D-G-E-G-(C) [AP#19]	51.9	increased adherence promoting effect	
L-A-E-L-L-D-G-E-G-Q-(C) [AP#18]	11.9	only have a basal adhesion promoting effect	
L-A-E-L-L-E-G-(C) (LAELLEG; C-terminal Cys) [AP#22]	18.8	somewhat reduced adherence efficacy	
L-A-E-L-L-L-G-(C) (LAELLLG; C-terminal Cys) [AP#23]	26.4	somewhat reduced adherence efficacy	
L-D-G-(C) [AP#27]	23.3	significant adhesion promoting effect	
L-L-D-G-(C) [AP#26]	31.3		
Q-I-D-F-N-R-L-F-T-H-P-V-T-D-L-F-D-P-(C) [AP#1]	72.5	Particularly good effectiveness	EC50 (semi-maximum cell adherence) (AKR-2B cells [4]): 32.9 pmol/well
R-T-P--- -A-E-L-L-D-G-(C) [AP#16]	21.4		
R-T-P-L-A-E-L-L-D-G-(C) [AP#15]	28.5		
S-V-T-L-G-(C) [SVTLG, reference compound]	72.1	slightly less effective	EC50 (semi-maximum cell adherence) (AKR-2B cells [4]): 64.5 pmol/well
T-V-L-R-N-I-Q-E-L-L-D-G-E-(C) [AP#12]	74.2		EC50 (semi-maximum cell adherence) (AKR-2B cells [4]): 29.0 pmol/well
V-T-G-R-G-D-S-P-A-(C) [IVA1, reference compound]	93.9	similarly good to those of fibronectin	Inhibition (maximum measured reduction in cell adherence) (AKR-2B cells [3]): 2.6%; inhibitory effect on the attachment of AKR-2B cells (in words) (AKR-2B cells [3]): virtually no effect; EC50 (semi-maximum cell adherence) (AKR-2B cells [4]): 0.73 pmol/well
